According to patent publication US10925915B2, “Use of a Copaifera extract to combat alopecia and seborrhea” (PIERRE FABRE DERMO-COSMETIQUE, priority 2017, dated 2021):

Test system: 5α-reductase
Assay: 5α-reductase activity of fibroblasts derived from human follicle dermal papillae ([C14]-testosterone metabolism to dihydrotestosterone)
Format: cell-based
Description: The study is performed on human cells derived from donor follicle dermal papillae. This model is attractive since dermal papillae have the 5α2 isoform as in prostate tissue. The cells are seeded in 24-well plates and cultured for 24 hours in DMEM culture medium supplemented with L-glutamine (2 mM), penicillin (50 U/ml), streptomycin (50 μg/ml) and fatal calf serum (10%) under standard culture conditions (37° C. and 5% CO2). The culture medium is then replaced by a DMEM analytical medium supplemented with L-glutamine (2 mM), penicillin (50 U/ml), streptomycin (50 μg/ml) and fatal calf serum (1%). This analytical medium may contain or may not contain (control conditions) the products to be tested and a compound used as reference, finasteride (10 μM), for 24 h of pre-incubation. The cells were then treated with an analytical medium containing [C^14]-testosterone and containing or not containing (control conditions) the test or reference products, and the cells were incubated for 24 h under these conditions. After incubation, supernatants were collected for testosterone metabolism analysis. All experiments were carried out three times. The steroid molecules were extracted from the supernatants with a chloroform/methanol mixture. The organic phase was collected and the different molecular species (testosterone metabolites) were separated by thin-layer chromatography using a solvent system containing dichloromethane, ethylacetate and methanol. An autoradiography was performed on the chromatography and the transformed testosterone was estimated by densitometric analysis.
Thus, the metabolism of testosterone to dihydrotestosterone reflects the 5α-reductase activity and is evaluated by the dihydrotestosterone/testosterone ratio.

| 5α-reductase inhibition, result in words | SMILES | inhibition of 5α-reductase (40 μg/ml) [%] | testosterone metabolism/dihydrotestosterone production (5α-reductase activity), change versus control = 100 (10 μM, n = 3) [%] |
| --- | --- | --- | --- |
|  | CCCCCCCCCCCC(=O)OCC(O)CO (stereo not drawn) [glyceryl laurate] | 19 |  |
| strong inhibition | CC(C)(C)NC(=O)[C@H]1CC[C@H]2[C@@H]3CC[C@H]4NC(=O)C=C[C@]4(C)[C@H]3CC[C@]12C [Finasteride, finasteride] |  | −77 |
